Some results are limits rather than exact numbers.

Chain of Type-1 angiotensin II receptor (Rattus norvegicus) (P25095 whole entry, looked up, the tested form may be a part): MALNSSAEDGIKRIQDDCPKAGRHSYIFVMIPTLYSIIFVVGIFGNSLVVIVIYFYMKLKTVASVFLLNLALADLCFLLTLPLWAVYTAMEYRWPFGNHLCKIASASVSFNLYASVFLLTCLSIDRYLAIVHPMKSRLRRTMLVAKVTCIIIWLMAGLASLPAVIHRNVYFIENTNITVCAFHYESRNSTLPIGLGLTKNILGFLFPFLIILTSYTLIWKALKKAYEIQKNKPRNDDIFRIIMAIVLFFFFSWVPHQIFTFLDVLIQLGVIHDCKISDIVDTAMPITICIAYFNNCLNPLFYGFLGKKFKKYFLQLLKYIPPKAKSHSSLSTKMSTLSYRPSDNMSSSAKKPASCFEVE

One experiment concerns the target Type-1 angiotensin II receptor (Rattus norvegicus) (UniProt P25095). The experiment can be described thus: The compound was tested for Angiotensin II (AII) antagonist activity in vivo in an AII infused, normotensive rat model upon intravenous administration.
`CCCCc1nc2ccccc2n1Cc1ccc(-c2ccccc2-c2nn[nH]n2)cc1` showed an ED50 of 5.2 mg/kg.

For the next experiment the target is unchanged. Nature of the experiment: The compound was tested for Angiotensin II (AII) antagonist activity in vivo in an […], normotensive rat model upon intravenous administration.
Molecule `CCCCc1nc2cc(F)ccc2n1Cc1ccc(C(=O)O)cc1` returned an ED50 of 9.1 mg/kg. On the same count and under the same terms, for `CCCCc1nc2ccccc2n1Cc1ccc(C(=O)O)c(Br)c1` the value was 5 mg/kg; for `CCCCc1nc2ccccc2n1Cc1ccc(C(=O)O)cc1`, 12.6 mg/kg.

`CCCCc1nc2ccccc2n1Cc1ccc(C(=O)O)cc1Br`: the ED50 worked out at 11.1 mg/kg. The same measure, in the same setting: the result for `CCCCCCc1nc2ccccc2n1Cc1ccc(C(=O)O)cc1` reads more than 20 mg/kg; that for `CCCCc1nc2ccccc2n1Cc1ccc(C(=O)O)cc1OC`, 16.1 mg/kg.

By ED50 is commonly meant the midpoint of the dose-response relation. Read a high ED50 as weaker potency.

These data come from ChEMBL document CHEMBL1126181, “New nonpeptide angiotensin II receptor antagonists. 1. Synthesis, biological properties, and structure-activity relationships of 2-alkyl benzimidazole derivatives” (J Med Chem, 1992).
